Source: patent US11090313B2, “Methods for inhibiting muscle atrophy” (UNIVERSITY OF IOWA RESEARCH FOUNDATION, priority 2010, dated 2021)
Entries after “also recorded” stand apart in the source; their conditions may differ.

What was measured:
Assay type in all cases: in vivo, mouse
C57BL/6 mice = assay: Fasting-induced muscle atrophy in mice (i.p. dosing, 24 h fast); details: for skeletal muscle weight in fasted mice (fasting-induced muscle atrophy) / fasting blood glucose: i.p. at 0 and 12 h of 24 h fast; for skeletal muscle weight in fasted mice (fasting-induced muscle atrophy): vs vehicle, mg/kg: ursolic acid 200, oleanolic acid 200, metformin 250, tomatidine 50, allantoin 2, tacrine 4, ungerine 2, hippeastrine 2, conessine 2; for fasting blood glucose: mice, mg/kg: metformin 250, ursolic acid 200, hippeastrine 2, conessine 2
Description: The mice were then fasted, and after 12 hours of fasting, the mice received a second dose of the compound or vehicle. After 24 hours of fasting, the blood glucose was measured and muscles were harvested. The data shown in FIGS. 6C-6H are means±SEM from ≤16 mice per condition. […] The effects of metformin and ursolic acid on fasting-induced muscle atrophy were also examined, i.e. the effect of 24 h fast (relative to ad lib feeding) on wet weight of lower hindlimb skeletal muscle (bilateral tibialis anterior (“TA” muscle), gastrocnemius, and soleus; see FIGS. 6E-6G). […] In FIGS. 6E-6H, each data point represents one mouse and the horizontal bars denote the means. In FIGS. 6C-6H, P-values were determined using unpaired t-tests.
Mice were then fasted, and after 12 hours of fasting, mice received a second dose of ursolic acid, oleanolic acid, or vehicle. After 24 hours of fasting, lower hindlimb skeletal muscles and liver were harvested and weighed.
To test this, food was withdrawn from mice, and then vehicle, ursolic acid (200 mg/kg) or tomatidine (50 mg/kg) were administered by i.p. injection. Twelve hours later, mice received another i.p. injection of vehicle or the same dose of ursolic acid or tomatidine. Twelve hours later, skeletal muscles were harvested and weighed. […] We next used the same protocol to compare the effects of vehicle (corn oil) and tomatidine (5, 15 and 50 mg/kg).

mice [1] = assay: High fat diet with ursolic acid and/or naringenin; details: HFD with ursolic acid 0.15% and/or naringenin 0.5% or 1.5%, 5 weeks
Description: To determine this, weight-matched mice were provided ad libitum access to standard (Harlan Teklad formula 7013), high fat diet (HFD; Harlan Teklad formula TD93075), or HFD containing varying concentrations of ursolic acid (0.15%) and/or naringenin (0.5% or 1.5%). After the mice consumed these diets for 5 weeks, fasting blood glucose, total body weight, fat mass, liver weight, grip strength, and skeletal muscle weight was measured.

mice [2] = assay: Immobilization-induced skeletal muscle atrophy model (stapled tibialis anterior); details: for immobilization-induced muscle atrophy (weights of immobile vs mobile TA): 2 days before and 6 days after immobilization, ursolic acid and betulinic acid varying doses, naringenin 200 mg/kg, tomatidine 5-200 mg/kg
Description: To test this, a mouse model of immobilization-induced skeletal muscle atrophy was used: mice were administered vehicle (corn oil) or varying doses of ursolic acid (positive control) or betulinic acid via intraperitoneal injection twice a day for two days. One tibialis anterior (TA) muscle was immobilized with a surgical staple, leaving the contralateral mobile TA as an intra-subject control. The vehicle or the same dose of ursolic acid or betulinic acid was continuously administered via i.p. injection twice daily for six days before comparing weights of the immobile and mobile TAs.
To test this, mice were administered vehicle (corn oil), ursolic acid (200 mg/kg), naringenin (200 mg/kg), or the combination of ursolic acid and naringenin (each at 200 mg/kg) via i.p injection twice a day for two days. One tibialis anterior (TA) muscle was immobilized with a surgical staple, leaving the contralateral mobile TA as an intrasubject control. Vehicle or the same doses of ursolic acid and/or naringenin was continuously administered via i.p. injection twice daily for six days before comparing weights of the immobile and mobile TAs.
To test this, mice were administered vehicle (corn oil) or tomatidine (50, 100 or 200 mg/kg) via i.p injection twice a day for two days. One tibialis anterior (TA) muscle was immobilized with a surgical staple, leaving the contralateral mobile TA as an intrasubject control. Vehicle or the same doses of tomatidine was administered via i.p. injection twice daily for six days before comparing weights of the immobile and mobile TAs. […] The same protocol was used to compare the effects of vehicle (corn oil) and tomatidine (5, 15 or 50 mg/kg) on immobilization-induced muscle atrophy.

Compound	skeletal muscle weight in fasted mice (fasting-induced muscle atrophy) (C57BL/6 mice)	fasting blood glucose (C57BL/6 mice)	also measured
NC(=O)NC1NC(=O)NC1=O (stereo not drawn) [allantoin]	increased muscle weight in fasted mice; also recorded: reduce fasting-induced muscle atrophy		
C[C@H]1[C@H]2CC[C@H]3[C@@H]4CC=C5C[C@@H](N(C)C)CC[C@]5(C)[C@H]4CC[C@]23CN1C [conessine]	increased muscle weight in fasted mice; also recorded: reduce fasting-induced muscle atrophy	reduce fasting blood glucose	
CN1CCC2=C[C@@H](O)[C@@H]3OC(=O)c4cc5c(cc4[C@@H]3[C@H]21)OCO5 [hippeastrine]	increased muscle weight in fasted mice; also recorded: reduce fasting-induced muscle atrophy	reduce fasting blood glucose	
CN(C)C(=N)N=C(N)N [metformin, reference compound]	did not alter muscle weight; also recorded: do not reduce skeletal muscle atrophy	significantly reduced fasting blood glucose	
O=C1CC(c2ccc(O)cc2)Oc2cc(O)cc(O)c21 (stereo not drawn) [naringenin]			fasting blood glucose in high fat fed mice (mice [1]): partially prevented; immobilization-induced muscle atrophy (weights of immobile vs mobile TA) (mice [2]; i.p. twice daily): reduced muscle atrophy; also recorded: reduces immobilization-induced skeletal muscle atrophy
CC1(C)CC[C@]2(C(=O)O)CC[C@]3(C)C(=CC[C@@H]4[C@@]5(C)CC[C@H](O)C(C)(C)[C@@H]5CC[C@]43C)[C@@H]2C1 [oleanolic acid, reference compound]	do not reduce skeletal muscle atrophy		
Nc1c2c(nc3ccccc13)CCCC2 [tacrine, reference compound]	increased muscle weight in fasted mice; also recorded: reduce fasting-induced muscle atrophy		
C[C@H]1CC[C@]2(NC1)O[C@H]1C[C@H]3[C@@H]4CC[C@H]5C[C@@H](O)CC[C@]5(C)[C@H]4CC[C@]3(C)[C@H]1[C@@H]2C [tomatidine]	increased skeletal muscle; also recorded: increased muscle weight in fasted mice; also recorded: reduces fasting-induced muscle atrophy		dose of maximal effect on fasting-induced muscle atrophy (C57BL/6 mice; tomatidine 5, 15 and 50 mg/kg i.p. twice, 24 h fast): 50 mg/kg; dose of maximal inhibition of immobilization-induced muscle atrophy (mice [2]; i.p. twice daily): 50 mg/kg; potency relative to ursolic acid in immobilization-induced muscle atrophy (mice [2]; i.p. twice daily): more potent than ursolic acid; immobilization-induced muscle atrophy (weights of immobile vs mobile TA) (mice [2]; i.p. twice daily): reduced muscle atrophy; also recorded: reduces immobilization-induced muscle atrophy; EC50, reduction of immobilization-induced muscle atrophy (mice [2]; tomatidine 5, 15 or 50 mg/kg i.p. twice daily): < 5 mg/kg
CO[C@@H]1C=C2CCN(C)[C@@H]2[C@H]2c3cc4c(cc3C(=O)O[C@H]21)OCO4 [ungerine]	increased muscle weight in fasted mice; also recorded: reduce fasting-induced muscle atrophy		
